Read-outs that look alike come from different tables or passages of the source.
Assays:
[1] = Metabolic stability, incubation with human liver S-9 fractions; format: in vitro ADME; details: for Liver S9 Stability Factor: % parent remaining after 30 min at 37 C with human liver S9, divided by average % ranolazine remaining (57%)
Description: Metabolic Stability: As a measure of metabolic stability the compounds of this invention were incubated with human liver S-9 microsomal fractions. After, 30 minutes at 37 C, the amount of parent drug remaining was determined using LC-mass spec. The response factors for each compound was determined by establishing a standard curve and using an internal standard during the analysis of the samples. An average of five experiments for percentage of ranolazine remaining at the 30 minute time point is 57%. The compounds of this invention were assayed as described in the protocol below and the percentage of parent remaining was divided by the average % of ranolazine remaining (57%) affording a metabolic stability factor. A compound with a stability number greater than 1.2 has a better stability than ranolazine in the liver S-9 assay. A compound with a stability number between 1.2 and 0.8 has an equivalent stability in the liver S-9 assay.
The purpose of this experiment is to compare the percentages remaining for compounds of this invention with the percentage remaining for ranolazine after 30 minutes of incubation with human liver S9 fractions.
The following reagents were used; Potassium phosphate, 0.5M pH 7.4 (incubation buffer), kept at room temperature; 0.05M MgCl^2 kept at 4° C.; β-Nicotinamide adenine dinucleotide phosphate, tetrasodium salt, reduced form (NADPH), 0.02M solution in water (˜16.6 mg/mL) from Sigma Lot #79H7044 prepared on day of use. 1 mM of ranolazine or Compounds 43, 45, 47, 52, 70, 74, 76, 78, and 80 in ACN further diluted to obtain 100 μM in 10% ACN; Human S9 stock: 20 mg/mL from Gentest.
Incubation mixtures were prepared as follows:
Combine all components with incubation buffer and re-pipette 200 μL/tube+25 μL of the compound being tested along with 25 μL of S-9.
After 5 min of pre-incubation at 37° C., at 0 and 30 min after starting the reaction, a 50 μl aliquot of the incubation mixture was removed and added to 100 μL of 9:1 acetonitrile:methanol containing the internal standard.
The mixture was centrifuged and a 100 μL aliquot of the supernatant was diluted in 1 mL of solvent C (0.1% Formic Acid in water). Then samples were analyzed for change between the ratio of compound to internal standard at time zero and 30 minutes by LC/MS (injected 10 μL).
Samples were analyzed for the starting compounds and potential metabolite/s by LC/MS using an internal standard and an ODS-C18 column with a flow rate of 0.25 ml/min.

[2] = test system: mitochondrial fatty acid oxidation using palmitoyl CoA as substrate; assay: Palmitoyl CoA oxidation in isolated rat heart mitochondria; format: biochemical; details: for Inhibition of mitochondrial fatty acid oxidation using palmitoyl CoA as substrate - % of Control, 50 μm (%): 50 μm compound; for Inhibition of mitochondrial fatty acid oxidation using palmitoyl CoA as substrate - % of Control, 50 μm (%) / Inhibition of mitochondrial fatty acid oxidation using palmitoyl CoA as substrate - % of Control, 100 μm (%): 15 min at 30° C.; for Inhibition of mitochondrial fatty acid oxidation using palmitoyl CoA as substrate - % of Control, 100 μm (%): 100 μm compound
Description: Rat heart mitochondria were isolated by the method of Nedergard and Cannon (Methods in Enzymol. 55, 3, 1979). Palmitoyl CoA oxidation—The Palmityl CoA oxidation was carried out in a total volume of 100 micro liters containing the following agents: 110 mM KCl, 33 mM Tris buffer at pH 8, 2 mM KPi, 2 mM MgCl2, 0.1 mM EDTA, 14.7 microM defatted BSA, 0.5 mM malic acid, 13 mM carnitine, 1 mM ADP, 52 micrograms of mitochondrial protein, and 16 microM 1-C14 palmitoyl CoA (Sp. Activity 60 mCi/mmole; 20 microCi/ml, using 5 microliters per assay). The compounds of this invention were added in a DMSO solution at the following concentrations: 100 microM, and 50 microM. In each assay, a DMSO control was used. After 15 min at 30° C., the enzymatic reaction was centrifuged (20,000 g for 1 min), and 70 microliters of the supernatant was added to an activated reverse phase silicic acid column (approximately 0.5 ml of silicic acid). The column was eluted with 2 ml of water, and 0.5 ml of the eluent was used for scintillation counting to determine the amount of C^14 trapped as C^14 bicarbonate ion.

[3] = Table IA, read-out: Effect on Palmitoyl CoA Oxidation (IC50)
[4] = Table 1, read-out: IC50 (μm), inhibition of mitochondrial fatty acid oxidation using palmitoyl CoA as substrate

| Structure (SMILES) | Inhibition of mitochondrial fatty acid oxidation using palmitoyl CoA as substrate - % of Control, 100 μm (%) [2] [%] | Liver S9 Stability Factor [1] | further results |
| --- | --- | --- | --- |
| COc1ccccc1OCC(O)CN1CCN(CC(=O)Nc2c(C)cccc2C)CC1 (racemic) [ranolazine, (±)-N-(2,6-dimethylphenyl)-4-[2-hydroxy-3-(2-methoxyphenoxy)-propyl]-1-piperazineacetamide, reference compound] | – | – | percentage of parent drug remaining at the 30 minute time point ([1]; human liver S-9, 30 minutes at 37 C, average of five experiments): 57% |
| Cc1nc2cc(OC[C@@H](O)CN3CCN(CC(=O)Nc4cccc(-c5ccccc5)c4)CC3)ccc2s1 [2-{4-[(2S)-2-hydroxy-3-(2-methylbenzothiazol-5-yloxy)propyl]piperazinyl}-N-(3-phenylphenyl)acetamide] | – | – | IC50 [2, 3]: 0.18 µM |
| Cc1nc2cc(OC[C@H](O)CN3CCN(CC(=O)Nc4c(C)cccc4C)C[C@H]3C)ccc2s1 [2-{(3R)-4-[(2R)-2-hydroxy-3-(2-methylbenzothiazol-5-yloxy)propyl]-3-methylpiperazinyl}-N-(2,6-dimethylphenyl)acetamide] | – | – | IC50 [2, 3]: 10 µM |
| Cc1nc2cc(OC[C@@H](O)CN3CCN(CC(=O)Nc4c(C)cccc4C)C[C@H]3C)ccc2s1 [2-{(3R)-4-[(2S)-2-hydroxy-3-(2-methylbenzothiazol-5-yloxy)propyl]-3-methylpiperazinyl}-N-(2,6-dimethylphenyl)acetamide] | – | – | IC50 [2, 3]: 2 µM |
| Cc1nc2cc(OC[C@@H](O)CN3CCN(CC(=O)Nc4c(C)cccc4C)C[C@@H]3C)ccc2s1 [2-{(3S)-4-[(2S)-2-hydroxy-3-(2-methylbenzothiazol-5-yloxy)propyl]-3-methylpiperazinyl}-N-(2,6-dimethylphenyl)acetamide] | – | – | IC50 [2, 3]: 0.2 µM |
| Cc1cccc(C)c1NC(=O)CN1CCN(CC(O)COc2ccc3oc(-c4cccc(C(F)(F)F)c4)nc3c2)CC1 (centres unmarked) [Compound 7, N-(2,6-dimethyl-phenyl)-2-(4-{2-hydroxy-3-[2-(3-trifluoromethylphenyl)benzoxazol-5-yloxy]-propyl}-piperazin-1-yl)acetamide] | – | – | Inhibition of mitochondrial fatty acid oxidation using palmitoyl CoA as substrate - % of Control, 50 μm (%) [2]: 77% |
| Cc1cccc(C)c1NC(=O)CN1CCN(CC(O)CNc2nc3ccccc3s2)CC1 (centres unmarked) [Compound 39, 2-{4-[3-(benzothiazol-2-ylamino)-2-hydroxypropyl]piperazinyl}-N-(2,6-dimethylphenyl)acetamide] | 27 | – | – |
| Cc1cccc(C)c1NC(=O)CN1CCN(CC(O)COc2nc3ccccc3s2)CC1 (centres unmarked) [Compound 43, 2-{4-[3-(benzothiazol-2-yloxy)-2-hydroxy-propyl]-piperazin-1-yl}-N-(2,6-dimethylphenyl)acetamide] | 21 | 0.6 | – |
| Cc1nc2cc(OCC(O)CN3CCN(CC(=O)Nc4c(C)cccc4C)CC3)ccc2s1 (centres unmarked) [Compound 45, N-(2,6-dimethylphenyl)-2-{4-[2-hydroxy-3-(2-methyl-benzothiazol-5-yloxy)-propyl]-piperazin-1-yl}acetamide] | 87 | 0.8 | IC50 [2, 4]: ~20 µM; IC50 [2, 3]: 15 µM |
| Cc1cccc(C)c1NC(=O)CN1CCN(CC(O)COc2cccc3[nH]c(C(N)=O)cc23)CC1 (centres unmarked) [Compound 46, 4-(3-{4-[(2,6-dimethylphenylcarbamoyl)-methyl]-piperazin-1-yl}-2-hydroxypropoxy)-1H-indole-2-carboxylic acid amide] | 61 | 1.1 | IC50 [2, 4]: ~125 µM |
| Cc1cccc(C)c1NC(=O)CN1CCN(CC(O)COc2ccc3ncsc3c2)CC1 (centres unmarked) [Compound 47, 2-{4-[3-(benzothiazol-6-yloxy)2-hydroxy-propyl]-piperazin-1-yl}-N-(2,6-dimethylphenyl)-acetamide] | 70 | 1.5 | IC50 [2, 4]: ~125 µM |
| Cc1nc2ccc(OCC(O)CN3CCN(CC(=O)Nc4c(C)cccc4C)CC3)cc2s1 (centres unmarked) [Compound 49, N-(2,6-dimethylphenyl)-2-{4-[2-hydroxy-3-(2-methyl-benzothiazol-6-yloxy)-propyl]-piperazin-1-yl}aceamide] | 3 | – | – |
| Cc1nc2cc(OCC(O)CN3C(C)CN(CC(=O)Nc4c(C)cccc4C)CC3C)ccc2s1 (stereo not drawn) [Compound 52, N-(2,6-dimethylphenyl)-2-{4-[2-hydroxy-3-(2-methyl-benzothiazol-5-yloxy)-propyl]-3,5-cis dimethyl-piperazine-1-yl}acetamide] | 95 | 0.5 | IC50 [2, 4]: ~1 µM; IC50 [2, 3]: 0.7 µM |
| Cc1nc2cc(OCC(O)CN3CCN(CC(=O)Nc4ccc(O)cc4)CC3)ccc2s1 (centres unmarked) [Compound 54, 2-{4-[2-hydroxy-3-(2-methyl-benzothiazol-5-yloxy)-propyl]-piperazin-1-yl}-N-(4-hydroxy-phenyl)acetamide] | 81 | – | IC50 [2, 4]: ~8 µM |
| Cc1cccc(C)c1NC(=O)CN1CCN(CC(O)COc2ccc3oc(-c4ccccc4)nc3c2)CC1 (centres unmarked) [Compound 60, N-(2,6-dimethylphenyl)-2-{4-[2-hydroxy-3-(2-phenyl-benzoxazol-5-yloxy)-propyl)-piperazin-1-yl}acetamide] | – | – | Inhibition of mitochondrial fatty acid oxidation using palmitoyl CoA as substrate - % of Control, 50 μm (%) [2]: 61% |
| Cc1cccc(C)c1NC(=O)CN1CCN(CC(O)COc2cccc3nc(-c4ccccc4)sc23)CC1 (centres unmarked) [Compound 62] | – | – | Inhibition of mitochondrial fatty acid oxidation using palmitoyl CoA as substrate - % of Control, 50 μm (%) [2]: 62% |
| Cc1nc2cc(OCC(O)CN3CCN(CC(=O)Nc4c(C)cccc4C)C(=O)C3)ccc2s1 (centres unmarked) [Compound 64, N-(2,6-dimethylphenyl)-2-{4-[2-hydroxy-3-(2-methyl-benzothiazol-5-yloxy)-propyl]-2-oxo-piperazin-1-yl}acetamide] | 41 | – | – |
| Cc1cccc(C)c1NC(=O)CN1CCN(CC(O)COc2ccc3oc(-c4ccc(C(F)(F)F)cc4)nc3c2)CC1 (centres unmarked) [Compound 68, N-(2,6-dimethylphenyl)-2-(4-{2-hydroxy-3-[2-(4-trifluoromethyl-phenyl)benzoxazol-5-yloxy]-propyl}-piperazin-1-yl)acetamide] | – | – | Inhibition of mitochondrial fatty acid oxidation using palmitoyl CoA as substrate - % of Control, 50 μm (%) [2]: 68% |
| Cc1cccc(C)c1NC(=O)CN1CCN(CC(O)COc2cnc3ccccc3n2)CC1 (centres unmarked) [Compound 70, N-(2,6-dimethylphenyl)-2-{4-[2-hydroxy-3-(quinoxalin-2-yloxy)-propyl]-piperazin-1-yl}acetamide] | – | 0.1 | – |
| Cc1cccc(C)c1NC(=O)CN1CCN(CC(O)COc2cccnc2)CC1 (centres unmarked) [Compound 72, N-(2,6-dimethylphenyl)-2-{4-[2-hydroxy-3-(pyridin-3-yloxy)-propyl]-piperazin-1-yl}acetamide] | 8 | – | – |
| Cc1cccc(C)c1NC(=O)CN1CCN(CC(O)COc2ccnc3ccccc23)CC1 (centres unmarked) [Compound 74, N-(2,6-dimethylphenyl)-2-{4-[2-hydroxy-3-(quinolin-4-yloxy)-propyl]-piperazin-1-yl}acetamide] | 12 | 1.0 | – |
| Cc1cccc(C)c1NC(=O)CN1CCN(CC(O)CNc2nc3ccccc3o2)CC1 (centres unmarked) [Compound 82, 2-{4-[3-(benzoxazol-2-ylamino)-2-hydroxypropyl]piperazinyl}-N-(2,6-dimethylphenyl)acetamide] | 22 | – | – |

From US6849632B2, “Heteroaryl alkyl piperazine derivatives” (CV Therapeutics, Inc., priority 2000, dated 2005)
